From publication PMC3905694, “Targeting Low-Druggability Bromodomains: Fragment Based Screening and Inhibitor Design against the BAZ2B Bromodomain” (Journal of Medicinal Chemistry, 2013)

Key:
BRD2-BD1 = biological target: T1, BRD2-BD1 (Homo sapiens, UniProt P25440); test: AlphaScreen fragment screen; type: binding; settings: fragment library screen
T1 construct: screened against the bromodomains of BRD2-BD1 and CREBBP

CREBBP = biological target: T2, CREBBP (Homo sapiens, UniProt Q92793); test: AlphaScreen fragment screen; type: binding; settings: fragment library screen
T2 construct: screened against the bromodomains of BRD2-BD1 and CREBBP
T2 sequence (Q92793 1085-1192 limits assumed): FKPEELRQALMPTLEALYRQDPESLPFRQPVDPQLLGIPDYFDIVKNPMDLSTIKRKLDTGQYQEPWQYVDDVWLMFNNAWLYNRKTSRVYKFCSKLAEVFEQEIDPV

BAZ2B bromodomain [1] = biological target: T3, BAZ2B bromodomain (Homo sapiens, UniProt Q9UIF8); test: AlphaLISA competitive peptide displacement (antipentahis acceptor beads); settings: in words
T3 sequence (Q9UIF8 2060-2164 limits assumed): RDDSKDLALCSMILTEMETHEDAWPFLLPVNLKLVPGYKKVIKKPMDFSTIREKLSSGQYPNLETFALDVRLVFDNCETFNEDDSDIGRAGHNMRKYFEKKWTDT

[2] = Solubility (qualitative remarks); type: physicochemical; settings: in words
BAZ2B bromodomain [3] = biological target: T3, BAZ2B bromodomain; test: Direct ITC titrations; type: binding; set-up: successful targeting of the challenging BAZ2B bromodomain; made in house; host or cells: E. coli BL21(DE3); settings: in words

T1 sequence (P25440 74-180 limits assumed): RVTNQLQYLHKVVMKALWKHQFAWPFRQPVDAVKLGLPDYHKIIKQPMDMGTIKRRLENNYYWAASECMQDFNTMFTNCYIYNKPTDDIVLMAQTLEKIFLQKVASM

| hit in fragment screen (BRD2-BD1) | hit in fragment screen (CREBBP) | solubility [2] | Structure (SMILES) | also measured |
| --- | --- | --- | --- | --- |
| hits | hits |  | CNC(=O)c1cc(C)n(C)n1 [Compound 5] |  |
|  |  |  | NC(=S)N1CCc2[nH]c3ccc(Cl)cc3c2C1 [Compound 39] | binding to the protein (BAZ2B bromodomain [1]): Neither of these bound |
| hits | hits | poor solubility | CC(=O)N1CCc2[nH]c3ccc(Cl)cc3c2C1 [Compound 6] |  |
|  |  | improved solubility | CNC(=O)N1CCc2[nH]c3ccc(Cl)cc3c2C1 [Compound 40] |  |
|  |  |  | CC(=S)N1CCc2[nH]c3ccc(Cl)cc3c2C1 [Compound 38] | binding to the protein (BAZ2B bromodomain [3]): Neither of these bound |
